Nc1ccc(S(=O)(=O)Nc2ncccn2)cc1
solubility (mole fraction)
Conditions	in acetone	in chloroform	in ethanol	in isopropanol	in methanol	in n-propanol
294.15 K	5.96e-05	5.47e-06	3.8e-05	6.53e-05	0.000265	9.66e-05
298.15 K	7.34e-05	9.26e-06	4.8e-05	8.18e-05	0.000283	0.000124
303.15 K	9.17e-05	1.54e-05	6.01e-05	0.000103	0.000311	0.000164
308.15 K	0.000106	2.15e-05	7e-05	0.000123	0.000343	0.000208
313.15 K	0.000115	2.57e-05	7.56e-05	0.000134	0.000377	0.000245
318.15 K	0.00012	2.71e-05	7.68e-05	0.000143	0.000409	0.000279

Reference: BigSolDB 2.1
